{
  "source": "patent US7629315B2",
  "about": "“Compositions for blocking the inhibitory effect of human CRP on human leptin” (University of Pittsburgh of the Commonwealth System of …, priority 2005, dated 2009)",
  "key": {"[1]": {"target": "T1, human leptin (Homo sapiens, UniProt P41159)", "T1 sequence (P41159 22-167)": "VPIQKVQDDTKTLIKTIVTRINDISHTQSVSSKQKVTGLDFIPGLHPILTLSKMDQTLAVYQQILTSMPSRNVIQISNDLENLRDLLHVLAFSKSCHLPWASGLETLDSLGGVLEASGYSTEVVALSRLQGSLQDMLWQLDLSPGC", "experiment": "IC50 for human CRP against human leptin (125I-leptin binding to OBR-expressing HEK293 cells)", "conditions": "in the presence of about 2 ng/ml human leptin", "protocol": "4. Measurement of IC50 for human CRP against human leptin: Human leptin was iodinated with Na^125I using the lodogen method. Briefly, 15 μg of human leptin in 100 mM Phosphate buffer pH 7.5 were incubated with 1 mCi of carrier-free Na^125I (2200 Ci/mmol) in a glass tube containing 50 μg Iodogen. After 10 minute incubation at room temperature, the reaction was stopped with 100 μl 0.1% trifluoroacetic acid (TFA). The reaction mixture was immediately purified by reverse-phase HPLC. The separation employed a 5 minute isocratic step at 20% eluant B in A, followed by two consecutive 30 minute linear gradients from 20 to 50%, then from 50 to 60% eluant B in A (where eluant A is water containing 0.1% TFA and eluant B is acetonitrile containing 0.1% TFA) at a flow rate of 1.5 ml/min. The ^125I-labeled leptin (˜2 ng/ml) was pre-incubated with various concentrations of human CRP in 1 ml of μ-MEM for 30 minute before added to the OBR-expressing HEK293 cells. The incubation would last for 3 hours at 4° C. before the media was aspirated and the cells were dissolved in 0.1N NaOH for scintillation counting.\nTo examine if human CRP interferes with the binding of human leptin to its receptors, we used a HEK293 cell line stably transfected with the long-form human leptin receptor, OB-Rb. The characterization of this cell line has been reported in earlier studies. M. Friedman-Einat et al., 2003, Regul. Pept. […]"}, "[2]": {"target": "mouse leptin (Mus musculus, UniProt P41160)", "sequence (P41160 22-167)": "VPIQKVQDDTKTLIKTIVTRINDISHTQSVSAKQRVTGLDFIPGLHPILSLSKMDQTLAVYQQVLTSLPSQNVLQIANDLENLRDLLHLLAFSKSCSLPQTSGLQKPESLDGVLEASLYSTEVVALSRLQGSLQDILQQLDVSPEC", "experiment": "IC50 for human CRP against mouse leptin (leptin binding to OB-Rb HEK293 cells)", "conditions": "in the presence of about 2 ng/ml mouse leptin"}, "[3]": {"system": "leptin-induced tyrosine phosphorylation of STAT3", "experiment": "Leptin-induced STAT3 tyrosine phosphorylation in HEK293 cells expressing OB-Rb (western blot), human leptin", "format": "cell-based", "conditions": "for effect on leptin-induced tyrosine phosphorylation of STAT3: human leptin 2 nM, protein pre-incubated with leptin, HEK293 OB-Rb cells", "protocol": "(§1) 2. Signaling Studies: A HEK293 cell line stably expressing the human long-form receptor, OB-Rb (M. Friedman-Einat et al., 2003, Regul. Pept. 111, 77) was serum starved for 2-h before addition of leptin and CRP. Leptin (SEQ ID NO:4), in the presence or absence of C-reactive proteins, was pre-incubated in μ-MEM for 30 minutes at 37° C. before applied to the cells. After a 30-incubation with leptin (SEQ ID NO:4), the cells were harvested in a previously described protein lysis buffer. A. Z. Zhao et al., 1997, Proc. Natl. Acad. Sci. U.S.A. 94, 322. The protein extract was subjected to a western blot assay with an anti-phospho-STAT3 specific antibody (Cell Signaling, Beverly, Mass.). For studies involving the primary hypothalamic neurons, the rat hypothalamus was surgically isolated right after euthanasia, and immediately placed in the DMEM for incubation with leptin in the presence or absence of CRP.\n(§2) To determine if the interaction between CRP and leptin influences cellular actions of leptin, we assessed the ability of leptin to stimulate tyrosine phosphorylation of STAT3 and PI3-kinase activity in the presence of CRP in vitro."}, "[4]": {"system": "mouse leptin-induced STAT3 activation", "experiment": "Leptin-induced STAT3 tyrosine phosphorylation in HEK293 cells expressing OB-Rb, mouse leptin", "format": "cell-based", "conditions": "murine leptin 2 nM", "protocol": "as §1, §2"}, "[5]": {"system": "leptin signaling in rat primary hypothalamic neurons", "experiment": "Leptin signaling (phospho-STAT3 and PI3-kinase assays) in rat primary hypothalamic neurons", "format": "cell-based", "conditions": "human leptin, rat primary hypothalamic ex-plants", "protocol": "as §1\nPrevious studies have reported a requirement of both JAK-STAT and PI3-kinase pathways in mediating leptin signaling within the hypothalamus. C. Vaisse et al., 1996, Nat. Genet. 14, 95; A. Z. Zhao et al., 2002, Nat. Neurosci. 5, 727; K. D. Niswender et al., 2001, Nature 413, 794. The effects of human CRP on leptin signaling in rat primary hypothalamic ex-plants were also tested (FIG. 4D)."}, "[6]": {"system": "human IL6-stimulated tyrosine phosphorylation of STAT3", "experiment": "IL6-stimulated STAT3 phosphorylation in human primary hepatocytes (specificity control)", "format": "cell-based"}, "[7]": {"system": "insulin-stimulated PI3-kinase", "experiment": "Insulin-stimulated PI3-kinase activity in differentiated 3T3-L1 adipocytes (specificity control)", "format": "cell-based"}, "[8]": {"system": "ob/ob mice", "experiment": "Infusion of human CRP and/or human leptin by osmotic pumps into ob/ob mice", "format": "in vivo, mouse", "conditions": "for body weight / food-intake: human CRP alone, without co-infusion of leptin; for effect on leptin-regulated body weight / effect on leptin-regulated food-intake: 6 days", "protocol": "3(a). In vivo assessment of CRP functions: The micro-osmotic pumps (#1007D, DURECT, Cupertino, Calif.) were subcutaneously imbedded in the ob/ob or wild-type mice according to the instructions of the manufacturer. The osmotic pumps were pre-filled with saline, CRP, leptin or leptin plus CRP. Food-intake (24-h), body weight, and body temperature were monitored daily post-surgery. Blood glucose concentrations were measured from the tail-vein blood samples right before and at the end of infusion with a Precision Plus glucose meter (Medisense, Abbot Park, Ill.).\n(§3) 3(b) Assessment of serum leptin insulin, and CRP: Human- and mouse-leptin concentrations were measured with the ELISA kit from CHEMICON (Temecular, Calif.) and R&D Systems (Minneapolis, Minn.), respectively, according to the instructions of the manufacturer. Serum mouse insulin concentrations were determined with an ELISA assay (LINCO Research, St. Charles, Mo.). Human CRP concentrations were also evaluated with an ELISA kit (Alpha Diagnostics International, San Antonio, Tex.).\n3(c) Measurement of serum- and tissue-triglycerides: Serum- and tissue-triglycerides were determined with the protocols described in J. N. Huan et al., 2003, J. Biol. Chem. 278, 45638. […]"}, "[9]": {"experiment": "Serum levels of infused human CRP and human leptin in ob/ob mice (ELISA)", "format": "in vivo, mouse", "protocol": "as §3"}, "[10]": {"target": "T1, human leptin", "experiment": "Immunoprecipitation of human CRP with human leptin", "format": "binding", "conditions": "leptin/CRP mixture and human serum", "protocol": "Direct binding of […] and leptin in an immunoprecipitation assay was determined. Rat CRP was purified from fresh rat serum to >95% employing a previously established affinity-purification protocol. J. Tseng et al., 1988, Mol. Immunol. 25, 679. This purity is very similar to the human CRP preparation obtained from a commercial source (CHEMICON International). The purified human- and rat-CRP proteins were pre-mixed with recombinant human and mouse leptin, respectively, before addition of specific antibodies against human- and mouse-leptin. The concentrations of CRP and leptin in the precipitation reaction were all within the physiological ranges (M. B. Schulze et al., 2004, Diabetes Care 27, 889; T. Kazumi et al., 2003, Metabolism 52, 1113).\nIn parallel experiments, recombinant leptin was also pre-mixed with human- or rat serum to allow for potential direct interactions prior to immunoprecipitation. The precipitation pellets obtained were subjected to western blot assays with specific anti-CRP antibodies. […] Because of the similarities between rat CRP and human CRP in the binding to leptin and of our main interest in the relevance to human obesity, focus was placed on potential functional effects of human CRP in the subsequent experiments."}, "[11]": {"conditions": "human CRP high dosage 40 μg/day co-infused with human leptin"}, "[12]": {"conditions": "human CRP high dosage co-infused with leptin"}, "[13]": {"conditions": "human CRP low dosage 10 μg/day co-infused with human leptin"}},
  "note": "“Also recorded” adds a separate entry of the source. Where two headings read alike, the source gives them in different places.",
  "data": [
    {"substance": "human CRP: human C-reactive protein preparation obtained from a commercial source (CHEMICON International)", "values": [
      {"measurement": "IC50 of CRP for reduction of 125I-labeled human leptin binding to its receptors", "setting": "[1]", "result": "approximately 80 ng/ml"},
      {"measurement": "IC50 of human CRP towards mouse leptin", "setting": "[2]", "result": "greater than 64 μg/ml"},
      {"measurement": "calcium dependence of attenuation of leptin signaling", "setting": "[3]; excess EGTA added to the incubation medium", "result": "requires the presence of calcium ions"},
      {"measurement": "effect on leptin-induced tyrosine phosphorylation of STAT3", "setting": "[3]", "result": "attenuate the tyrosine-phosphorylation of STAT3; also recorded: Attenuating effects; also recorded: caused the reduction of leptin-stimulated STAT3 activation"},
      {"measurement": "effect on leptin-induced tyrosine phosphorylation of STAT3", "setting": "[3]; listed as Human CRP", "result": "suppressed the activation of STAT3 by leptin"},
      {"measurement": "effect on mouse leptin-induced STAT3 phosphorylation", "setting": "[4]", "result": "less efficient in blocking the signaling capacity of mouse leptin; also recorded: unable to block leptin-induced STAT3 activation"},
      {"measurement": "effect on leptin signaling (phospho-STAT3 and PI3-kinase)", "setting": "[5]", "result": "inhibited leptin signaling in primary hypothalamic neurons"},
      {"measurement": "effect on IL6-stimulated tyrosine phosphorylation of STAT3", "setting": "[6]", "result": "did not suppress IL-6 induced activation of STAT3"},
      {"measurement": "effect on IL6-stimulated tyrosine phosphorylation of STAT3", "setting": "[6]; listed as Human CRP", "result": "does not affect human IL6-stimulated tyrosine phosphorylation of STAT3"},
      {"measurement": "effect on insulin-stimulated PI3-kinase activity", "setting": "[7]", "result": "did not suppress; also recorded: does not affect insulin-stimulated PI3-kinase activity"},
      {"measurement": "leptin-stimulated STAT3 activation in hypothalamic tissues", "setting": "[8]; high dose CRP co-infused with leptin", "result": "blocked by co-infusion of CRP with leptin"},
      {"measurement": "body weight", "setting": "[8]", "result": "did not affect food-intake or body weight"},
      {"measurement": "food-intake", "setting": "[8]", "result": "did not affect food-intake or body weight"},
      {"measurement": "body weight", "setting": "[8]; listed as CRP", "result": "does not influence food-intake and body-weight"},
      {"measurement": "food-intake", "setting": "[8]; listed as CRP", "result": "does not influence food-intake and body-weight"},
      {"measurement": "effect on leptin-regulated body weight", "setting": "[8]; [11]", "result": "completely blocked the actions of leptin to restrain appetite and induce weight loss; also recorded: completely blocked the effects of leptin"},
      {"measurement": "effect on leptin-regulated food-intake", "setting": "[8]; [11]", "result": "completely blocked the actions of leptin to restrain appetite and induce weight loss; also recorded: completely blocked the effects of leptin"},
      {"measurement": "effect on leptin-regulated rectal temperature", "setting": "[8]; human CRP high dosage co-infused with human leptin", "result": "attenuation of leptin-induced energy expenditure; also recorded: completely blocked the effects of leptin on rectal temperature"},
      {"measurement": "effect on leptin-induced change in blood glucose", "setting": "[8]; [12]", "result": "blocked these effects of leptin; also recorded: completely blocked leptin-induced beneficial effects"},
      {"measurement": "effect on leptin-induced change in hepatic triglycerides", "setting": "[8]; [12]", "result": "blocked these effects of leptin; also recorded: completely blocked leptin-induced beneficial effects"},
      {"measurement": "effect on leptin-induced change in serum insulin", "setting": "[8]; [12]", "result": "blocked these effects of leptin; also recorded: completely blocked leptin-induced beneficial effects"},
      {"measurement": "effect on leptin-induced change in serum triglycerides", "setting": "[8]; [12]", "result": "blocked these effects of leptin; also recorded: completely blocked leptin-induced beneficial effects"},
      {"measurement": "effect on leptin-regulated body weight", "setting": "[8]; [13]", "result": "only partially attenuated these effects of human leptin; also recorded: only partially blocked leptin's effect"},
      {"measurement": "effect on leptin-regulated food-intake", "setting": "[8]; [13]", "result": "only partially attenuated these effects of human leptin; also recorded: only partially blocked leptin's effect"},
      {"measurement": "serum concentration of human CRP", "setting": "[9]; end of infusion, human CRP 48 μg/day/mouse", "result": "0.85 ± 0.1", "unit": "µg/mL"},
      {"measurement": "serum concentrations of human CRP attained", "setting": "[9]; human CRP infused at 10 or 40 μg/day", "result": "well within the physiological range observed in human plasma"},
      {"measurement": "direct binding to human leptin (immunoprecipitation with anti human-leptin, anti-CRP western blot)", "setting": "[10]", "result": "could pull down human CRP"}
    ]}
  ]
}
